Experimental data: patent US8507498B2, “4, 6-disubstituted aminopyrimidine derivatives as inhibitors of protein kinases” (Ingenium Pharmaceuticals GmbH, priority 2007, dated 2013)
“Also recorded” adds a separate entry of the source.

How the values were obtained:
[1] = system: IL6 expression in LPS-induced THP-1 macrophages; experiment: In vitro THP-1 assay, IL6 ELISA; assay type: cell-based, human; settings: 0.5 to 5 μM, 60 min pre-incubation, vs DMSO
Protocol: (§1) THP-1 cells are grown in modified RPMI-1640 medium (ATCC, Cat. No. 30-2001) supplemented with 10% FCS and 1% Pen/Strep. For cytokine inhibition assays, cells are seeded at a density of 5×10^5 cells/ml into 6-well plates in standard growth medium supplemented with 100 ng/ml PMA (Sigma, P1585) to induce differentiation into macrophage-like cells. After 24 hours, the medium is replaced with standard growth medium (without PMA) and the cells are incubated for another 48 hours to complete differentiation. […] Cells are incubated for 60 min with compounds prior to stimulation with 100 ng/ml LPS (Sigma, L2630) for another 4-48 hours. Supernatants are collected and assayed immediately for cytokine expression, e.g. for TNFα, IL-6 and IL-1b using commercially available sandwich ELISA assays (eBioscience, Cat. No 88-7346, 88-7066, 88-7010) or kept frozen at […] until evaluation. Concentrations of TNFα, IL6 and IL1β within the cell culture supernatants are measured by using commercial ELISA Kits (eBioscience) according to the manufacturer's instructions. CDK-inhibitory compounds # 1, 2, 3, 5, 16, 18, 19 and 32 were administered to differentiated THP-1 cells in triplicates as described above (see section 2.). After 60 min of pre-incubation with test or reference compound (SB203580, a p38 inhibitor and BMS345541, an IKK-inhibitor) alone, cells were stimulated with LPS. After incubation for 4-48 h, supernatants were collected and ELISA based determinations of cytokine supernatant concentrations were performed as described in section 3, supra.

[2] = system: TNFα; experiment: LPS in vivo assay, serum TNF alpha ELISA; settings: LPS mice, 10 or 30 mg/kg single p.o. 30 min prior to LPS, blood 90 min after LPS, vs vehicle
Protocol: (§2) For the LPS induced model of septic shock, mice receive an intraperitoneal (i.p.) injection of 30 μg bacterial Lipopolysaccharide (LPS; L2630 SIGMA) in saline. Said LPS-mediated initiation of the inflammatory signalling cascade results in increasing blood serum concentrations of cytokines such as e.g. TNFα, IL-6 and IL1β. Blood can be taken from these animals at defined time points. Thereafter, serum will be separated and the samples can be stored at −80° C. until cytokine concentrations are measured using commercial ELISA assays. (AL Moreira et al., Braz J Med Biol Res 1997; 30:1199-1207).
(§3) Wildtype mice (strain C3HeB/FeJ) (age, sex and weight matched) were injected with 30 μg LPS (SIGMA) intraperitoneally. 90 minutes after LPS administration these animals were anaesthetized with 0.1 ml/10 g bodyweight Ketamine-Rompun (50/20 mg/ml) and blood for serum preparation was taken via cardiac puncture.
(§4) Pharmacological treatment groups (n=4) of LPS mice received per os (p.o.) injections of CDK-inhibiting compounds or the vehicle (negative control), respectively. In particular, compounds 1, 5, 10, and 84 were administered.
(§5) 10 or 30 mg/kg (compound per bodyweight) of a CDK inhibitor, dissolved in 20% DMSO, 5% Tween 80, 10% Tris 1M pH8, 20% PEG400, 45% PBS was administered as a single p.o. dosage 30 min prior to LPS stimulation. Vehicle control was administered in the same manner.
(§6) 90 minutes (min) after LPS stimulation, blood samples were taken from the mice. Previously, the 90 min time point had been identified as the peak of TNF alpha expression in this animal model by a time course experiment.
(§7) Blood samples (˜500 μl/animal) from the LPS animals were incubated on wet ice for 30 min after cardiac puncture. Afterwards the samples were centrifuged for 15 min at 13.000 rpm. Serum was separated from the clot and stored frozen at −80° C.
(§8) Serum concentrations of TNF alpha and IL6 within the samples were measured by using commercial ELISA Kits (Natutec) according to the manufacturers instructions.

[3] = system: IL6; experiment: LPS in vivo assay, serum IL6 ELISA; settings: LPS mice, 10 or 30 mg/kg single p.o. 30 min prior to LPS, blood 90 min after LPS, vs vehicle
Protocol: as §2, §3, §4, §5, §6, §7, §8

[4] = system: TNFα expression in LPS-induced THP-1 macrophages; experiment: In vitro THP-1 assay, TNFα ELISA; assay type: cell-based, human; settings: 0.5 to 5 μM, 60 min pre-incubation, vs DMSO
Protocol: as §1

CCCS(=O)(=O)Nc1cc(Nc2cc(-c3cccc([N+](=O)[O-])c3)ncn2)ccc1C
melting point: 202 to 203.5 °C

CCOc1ccccc1-c1cc(Nc2cccc(CS(N)(=O)=O)c2)ncn1 [Compound 1, {3-[6-(2-Ethoxy-phenyl)-pyrimidin-4-ylamino]-phenyl}-methanesulfonamide]
inhibition of IL6 expression in the supernatant [1]: significant inhibitory effect; also recorded: significant inhibition
TNFα protein concentration in the blood serum [2]: significant repressive effect
melting point: 236.3 to 238.6 °C
IL6 protein concentration in the blood serum [3]: significant repressive effect
inhibition of TNFα expression in the supernatant [4]: significant inhibitory effect; also recorded: significant inhibition

COc1cc(F)ccc1-c1cc(Nc2cccc(CS(N)(=O)=O)c2)ncn1 [Compound 3, {3-[6-(4-Fluoro-2-methoxy-phenyl)-pyrimidin-4-ylamino]-phenyl}-methanesulfonamide]
inhibition of IL6 expression in the supernatant [1]: significant inhibitory effect; also recorded: significant inhibition
inhibition of TNFα expression in the supernatant [4]: significant inhibitory effect; also recorded: significant inhibition

CC(C)Oc1ccccc1-c1cc(Nc2cccc(CS(N)(=O)=O)c2)ncn1 [Compound 5, {3-[6-(2-Isopropoxy-phenyl)-pyrimidin-4-ylamino]-phenyl}-methanesulfonamide]
inhibition of IL6 expression in the supernatant [1]: significant inhibition
TNFα protein concentration in the blood serum [2]: significant repressive effect
IL6 protein concentration in the blood serum [3]: significant repressive effect

COc1ccccc1-c1cc(Nc2cccc(CS(=O)(=O)NC(C)C)c2)ncn1 [Compound 10, N-Isopropyl-C-{3-[6-(2-methoxy-phenyl)-pyrimidin-4-ylamino]-phenyl}-methanesulfonamide]
TNFα protein concentration in the blood serum [2]: significant repressive effect
IL6 protein concentration in the blood serum [3]: significant repressive effect

COc1ccccc1-c1cc(Nc2cccc(CS(=O)(=O)NC3CCCC3)c2)ncn1 [Compound 16, N-Cyclopentyl-C-{3-[6-(2-methoxy-phenyl)-pyrimidin-4-ylamino]-phenyl}-methanesulfonamide]
inhibition of IL6 expression in the supernatant [1]: significant inhibitory effect; also recorded: significant inhibition
inhibition of TNFα expression in the supernatant [4]: significant inhibitory effect; also recorded: significant inhibition

CCOc1ccccc1-c1cc(Nc2cccc(CS(=O)(=O)NC3CC3)c2)ncn1 [Compound 18, N-Cyclopropyl-C-{3-[6-(2-ethoxy-phenyl)-pyrimidin-4-ylamino]-phenyl}-methanesulfonamide]
inhibition of IL6 expression in the supernatant [1]: significant inhibitory effect; also recorded: significant inhibition
inhibition of TNFα expression in the supernatant [4]: significant inhibitory effect; also recorded: significant inhibition

CCOc1ccccc1-c1cc(Nc2cccc(CS(=O)(=O)NC(C)(C)C)c2)ncn1 [Compound 19, N-tert-Butyl-C-{3-[6-(2-ethoxy-phenyl)-pyrimidin-4-ylamino]-phenyl}-methanesulfonamide]
inhibition of IL6 expression in the supernatant [1]: significant inhibitory effect; also recorded: significant inhibition
inhibition of TNFα expression in the supernatant [4]: significant inhibitory effect; also recorded: significant inhibition

NS(=O)(=O)Cc1cccc(Nc2cc(-c3ccccc3OCc3ccccc3)ncn2)c1 [Compound 32, {3-[6-(2-Benzyloxy-phenyl)-pyrimidin-4-ylamino]-phenyl}-methanesulfonamide]
inhibition of IL6 expression in the supernatant [1]: significant inhibitory effect; also recorded: significant inhibition
inhibition of TNFα expression in the supernatant [4]: significant inhibitory effect; also recorded: significant inhibition

COCCCNS(=O)(=O)Cc1cccc(Nc2cc(-c3ccccc3OC)ncn2)c1 [Compound 33, C-{3-[6-(2-Methoxy-phenyl)-pyrimidin-4-ylamino]-phenyl}-N-(3-methoxy-propyl)-methanesulfonamide]
melting point: 149.2 to 150.8 °C

COCCOc1ccccc1-c1cc(Nc2cccc(CS(C)(=O)=O)c2)ncn1 [Compound 57, (3-Methanesulfonylmethyl-phenyl)-{6-[2-(2-methoxy-ethoxy)-phenyl]-pyrimidin-4-yl}-amine]
melting point: 141 to 142.9 °C

NS(=O)(=O)Cc1cccc(Nc2cc(-c3cccc(C(F)(F)F)c3)ncn2)c1 [Compound 63, {3-[6-(3-Trifluoromethyl-phenyl)-pyrimidin-4-ylamino]-phenyl}-methanesulfonamide]
melting point: 221.5 to 223 °C

CS(=O)(=O)Cc1cccc(Nc2cc(-c3ccccc3OCC3CCCO3)ncn2)c1 (stereo not drawn) [Compound 64, (3-methanesulfonylmethyl-phenyl)-{6-[2-(tetrahydro-furan-2-ylmethoxy)-phenyl]-pyrimidin-4-yl}-amine]
melting point: 160 to 162.6 °C

COc1ccccc1-c1cc(Nc2cccc(CS(N)(=O)=O)c2)nc(N)n1 [Compound 66, {3-[2-amino-6-(2-methoxy-phenyl)-pyrimidin-4-ylamino]-phenyl}-methanesulfonamide]
melting point: 211.7 to 213.1 °C

CNS(=O)(=O)Cc1cccc(Nc2cc(-c3ccccc3COC)ncn2)c1 [Compound 80, C-{3-[6-(2-methoxymethyl-phenyl)-pyrimidin-4-ylamino]-phenyl}-N-methyl-methanesulfonamide]
melting point: 171 to 172 °C

NS(=O)(=O)Cc1cccc(Nc2cc(-c3ccccc3OCC3CCCO3)ncn2)c1 (stereo not drawn) [Compound 82, (3-{6-[2-(tetrahydro-furan-2-ylmethoxy)-phenyl]-pyrimidin-4-ylamino}-phenyl)-methanesulfonamide]
melting point: 168.4 to 169.4 °C

COCCOc1ccccc1-c1cc(Nc2cccc(CS(N)(=O)=O)c2)nc(C)n1 [Compound 83, (3-{6-[2-(2-methoxy-ethoxy)-phenyl]-2-methyl-pyrimidin-4-ylamino}-phenyl)-methanesulfonamide]
melting point: 209 to 211.1 °C

COc1ccccc1-c1cc(Nc2cccc(CS(=O)(=O)CCCN(C)C)c2)ncn1 [Compound 84, [3-(3-Dimethylamino-propane-1-sulfonylmethyl)-phenyl]-[6-(2-methoxy-phenyl)-pyrimidin-4-yl]-amine]
TNFα protein concentration in the blood serum [2]: significant repressive effect
IL6 protein concentration in the blood serum [3]: significant repressive effect

CS(=O)(=O)c1cccc(Nc2cc(-c3ccccc3O)ncn2)c1 [Reference Example 49, 2-[6-(3-methanesulfonyl-phenylamino)-pyrimidin-4-yl]-phenol]
melting point: 214 to 216.1 °C

CS(=O)(=O)c1cccc(Nc2cc(-c3ccccc3OCc3ccccc3)ncn2)c1 [Reference Example 51, [6-(2-benzyloxy-phenyl)-pyrimidin-4-yl]-(3-methanesulfonyl-phenyl)-amine]
melting point: 199 to 205 °C
